Here are results for twelve compounds from paper PMC6407578, “Synthesis and biological evaluation of ursolic acid derivatives bearing triazole moieties as potential anti-Toxoplasma gondii agents” (Journal of Enzyme Inhibition and Medicinal Chemistry, 2019).

Data set [1] can be described thus: Liver/spleen indexes, serum ALT/AST, liver MDA/GSH in T. gondii-infected KM mice. Format: in vivo. The note with it: 100 mg/kg; for spleen index: effect on the infection-induced increase, not statistically significant; for GSH content (liver homogenate): compared to the untreated group. How it is done: (§1) Thirty female KM mice were used to establish an animal model of acute T. gondii infection. These were randomly divided into five groups: infected untreated, normal, infected with spiramycin treatment, infected with 1e treatment and infected with 3d treatment. Each group consisted of six mice. Four hours after infection, 100 mg/kg of the compounds was administered to the mice by gavage, once a day for 4 consecutive days, whereas the untreated group was administered the same dose of physiological saline. On the fifth day, blood from the eyes of mice was collected and they were sacrificed by cervical dislocation. Their abdominal cavity was rinsed with sterile physiological saline to collect the parasites/tachyzoites. These were counted under the light microscope, and the inhibition rate of parasites was calculated. The liver and spleen were dissected and liver and spleen indexes, serum alanine aminotransferase (ALT), aspartate aminotransferase (AST), and liver homogenate glutathione (GSH) and malonaldehyde (MDA) were determined.

A further data set concerns T. gondii tachyzoites. The data set is described as follows: In vivo anti-T. gondii activity, acute infection model in KM mice (intraperitoneal tachyzoite count). Details: species or system Toxoplasma gondii. The note with it: T. gondii-infected KM mice, 100 mg/kg by gavage once a day for 4 days; for inhibitory rate of tachyzoites: ascitic fluid; for Amount of tachyzoite: intraperitoneal tachyzoites. How it is done: as §1

The next data set relates to HeLa cells. The data set is described as follows: Cytotoxicity on HeLa host cells (MTT). Format: cell-based. Conditions: median toxicity dose, cytotoxicity against host cells, 24 h. The method, then:
(§2) The cytotoxicity of compounds was determined using the previously published thiazolyl blue-based colorimetric method. For this, HeLa cells were used as host cells and their ability to resist invasion by T. gondii RH strain tachyzoites in vitro was checked. The cells were plated in 96-well plates at an appropriate density to ensure exponential growth throughout the experimental period (3 × 10^3 cells per well) and then allowed to adhere for 24 h at 37 °C. The cells were infected with T. gondii (1.5 × 10^4 tachyzoites/well), followed by incubation for 24 h. All compounds were prepared in dimethyl sulfoxide (DMSO) at a stock concentration of 100 mM. Serial dilutions (1–1000 μM) of each compound were tested. Spiramycin was used as a positive control. After 24 h of incubation, 10 μL of MTT solution were added to each well and cells were incubated for a further 2 h. The optical density (OD) was read on a microplate reader at a wavelength of 492 nm. The IC50 in HeLa cells, IC50 in T. gondii and selectivity index were calculated using Microsoft Excel.

Data set [2] concerns T. gondii RH strain tachyzoites. The data set is described as follows: In vitro T. gondii growth inhibition in HeLa host cells (MTT). Conditions: for SI (selectivity index): IC50 in HeLa cells/IC50 in T. gondii; for IC50: median inhibitory concentration, tachyzoite inhibition, HeLa host cells, 24 h. Format: cell-based, Toxoplasma gondii. The method, then: as §2
In a further data set the test system is T. gondii. Details: method as in PMID 25288090. Conditions: cited from earlier work.
Where [3] appears, read: T. gondii-infected KM mice, compared with the untreated group.

Where two headings read alike, the source gives them in different places.

On to Spiramycin [reference compound], for which the “levels of MDA (liver homogenate)” value in data set [1] (setting [3]) was “significantly decreased”. Further, the spleen index entry in data set [1] (T. gondii-infected KM mice) is on record as “subjugated”. Moreover, in the data set on T. gondii tachyzoites, the “inhibitory rate of tachyzoites” value is 56.8% and the Amount of tachyzoite is on record as 97.2 ×10^4. For the same compound, in the data set with HeLa cells, inhibition was half-maximal at 189 µM (IC50). Further, in data set [2], the “SI (selectivity index)” value came out at 0.72 and the IC50 (in general, the concentration needed to halve the response being measured) turned out to be 262 µM.
For `C[C@H]1[C@H](C)CC[C@]2(C(=O)O)CC[C@]3(C)C(=CC[C@@H]4[C@@]5(C)C/C(=C\c6cn(-c7ccccc7Cl)nn6)C(=O)C(C)(C)[C@@H]5CC[C@]43C)[C@H]12` [1e, (1S,2R,4aS,6aS,6bR,8aR,12aR,12bR,14bS,E)-11-((1–(2-chlorophenyl)-1H-1,2,3-triazol-4-yl)methylene)-1,2,6a,6b,9,9,12a-heptamethyl-10-oxo-1,3,4,5,6,6a,6b,7,8,8a,9,10,11,12,12a,12b,13,14b-octadecahydropicene-4a(2H)-carboxylic acid], the “GSH content (liver homogenate)” value in data set [1] (T. gondii-infected KM mice) is given as “significantly increase”. Also, the “serum ALT and AST levels” value in data set [1] (setting [3]) is “striking reduction”. Also, in the data set on T. gondii tachyzoites, the “inhibitory rate of tachyzoites” value is 37.0% and the Amount of tachyzoite is 141.8 ×10^4. This compound yielded an IC50 in the data set with HeLa cells (Homo sapiens, HeLa) of 466 µM. Also, in data set [2], the “SI (selectivity index)” value worked out at 1.95. The compound further showed an IC50 in data set [2] (Toxoplasma gondii) of 240 µM.
Take `C[C@H]1[C@H](C)CC[C@]2(C(=O)O)CC[C@]3(C)C(=CC[C@@H]4[C@@]5(C)CC[C@H](O)C(C)(C)[C@@H]5CC[C@]43C)[C@H]12` [Ursolic Acid, Ursolic acid]: the “levels of MDA (liver homogenate)” value in data set [1] (setting [3]) is on record as “significantly decreased”. The spleen index entry in data set [1] (T. gondii-infected KM mice) is listed as “subjugated”. Further, in data set [1] (mouse, in vivo), the “serum ALT and AST levels” value was “striking reduction”. In the data set on T. gondii tachyzoites, the “inhibitory rate of tachyzoites” value was found to be 65.4% and the Amount of tachyzoite is listed as 77.9 ×10^4. In addition, in the data set with HeLa cells (Homo sapiens, HeLa), the IC50 was 44.8 µM. For the same compound, the “SI (selectivity index)” value in data set [2] came to 0.62. The compound also had an IC50 in data set [2] (Toxoplasma gondii) of 72.2 µM.
In the case of `C[C@H]1[C@H](C)CC[C@]2(C(=O)OCCn3cnnc3-c3ccc([N+](=O)[O-])cc3)CC[C@]3(C)C(=CC[C@@H]4[C@@]5(C)CCC(O)C(C)(C)[C@@H]5CC[C@]43C)[C@H]12` (stereo partly drawn) [3d, 2 –(3-(4-nitrophenyl)-4H-1,2,4-triazol-4-yl)ethyl(1S,2R,4aS,6aS,6bR,8aR,12aR,12bR,14bS)-10-hydroxy-1,2,6a,6b,9,9,12a-heptamethyl-1,3,4,5,6,6a,6b,7,8,8a,9,10,11,12,12a,12b,13,14b-octadecahydropicene-4a(2H)-carboxylate], in data set [1] (T. gondii-infected KM mice), the “GSH content (liver homogenate)” value is recorded as “significantly increase” and the spleen index result is reported as “subjugated”. Also, in data set [1] (setting [3]), the “levels of MDA (liver homogenate)” value is given as “significantly decreased”; the “serum ALT and AST levels” value is “striking reduction”. In addition, in the data set on T. gondii tachyzoites, the “inhibitory rate of tachyzoites” value stood at 70.4% and the Amount of tachyzoite is listed as 66.6 ×10^4. Moreover, half-maximal inhibition with HeLa cells (Homo sapiens, HeLa) (IC50) required 227 µM. For the same compound, in data set [2], the “SI (selectivity index)” value was determined as 1.77. Further, the IC50 in data set [2] (Toxoplasma gondii) was determined as 128 µM.
As for `C[C@H]1[C@H](C)CC[C@]2(C(=O)O)CC[C@]3(C)C(=CC[C@@H]4[C@@]5(C)C/C(=C\c6cn(-c7ccccc7F)nn6)C(=O)C(C)(C)[C@@H]5CC[C@]43C)[C@H]12` [1b, (1S,2R,4aS,6aS,6bR,8aR,12aR,12bR,14bS,E)-11-((1–(2-fluorophenyl)-1H-1,2,3-triazol-4-yl)methylene)-1,2,6a,6b,9,9,12a-heptamethyl-10-oxo-1,3,4,5,6,6a,6b,7,8,8a,9,10,11,12,12a,12b,13,14b-octadecahydropicene-4a(2H)-carboxylic acid], the melting point – broadly, the temperature of the solid-liquid transition – was > 250 °C. Moreover, the IC50 in the data set on HeLa cells (Homo sapiens, HeLa) was found to be 420 µM. The “SI (selectivity index)” value in data set [2] is listed as 0.59. Also, 712 µM corresponded to half-maximal inhibition in data set [2] (Toxoplasma gondii) (IC50).
For `C[C@H]1[C@H](C)CC[C@]2(C(=O)O)CC[C@]3(C)C(=CC[C@@H]4[C@@]5(C)C/C(=C\c6cn(-c7ccc(F)cc7)nn6)C(=O)C(C)(C)[C@@H]5CC[C@]43C)[C@H]12` [1d, (1S,2R,4aS,6aS,6bR,8aR,12aR,12bR,14bS,E)-11-((1–(4-fluorophenyl)-1H-1,2,3-triazol-4-yl)methylene)-1,2,6a,6b,9,9,12a-heptamethyl-10-oxo-1,3,4,5,6,6a,6b,7,8,8a,9,10,11,12,12a,12b,13,14b-octadecahydropicene-4a(2H)-carboxylic acid], the melting point was > 250 °C. In addition, the concentration for half-maximal inhibition (IC50) with HeLa cells (Homo sapiens, HeLa) was > 1000 µM. In addition, the IC50 in data set [2] (Toxoplasma gondii) was > 1000 µM.
Regarding `C[C@H]1[C@H](C)CC[C@]2(C(=O)OCC(=O)NCc3cn(-c4ccccc4)nn3)CC[C@]3(C)C(=CC[C@@H]4[C@@]5(C)CCC(O)C(C)(C)[C@@H]5CC[C@]43C)[C@H]12` (stereo partly drawn) [2a, (1S,2R,4aS,6aS,6bR,8aR,12aR,12bR,14bS)-2-oxo-2-((1-phenyl-1H-1,2,3-triazol-4-yl)methylamino)ethyl-10-hydroxy-1,2,6a,6b,9,9,12a-heptamethyl-1,2,3,4,4a,5,6,6a,6b,7,8,8a,9,10,11,12,12a,12b,13,14b-icosahydropicene-4a-carboxylate], the melting point fell in the range of 170 to 172 °C. Besides, half-maximal inhibition in the data set on HeLa cells (Homo sapiens, HeLa) (IC50) required 837 µM. In data set [2] (Toxoplasma gondii), the IC50 was > 1000 µM.
With `S=C1N=NC(c2cccs2)=N1` [compound 2, 3-(thiophen-2-yl)-1,2,4-triazole-5-thione], the selectivity value with T. gondii (3[H]uracil incorporation method) was 4.58; with T. gondii (qRT-PCR), 5.21.
Turning to `C[C@H]1[C@H](C)CC[C@]2(C(=O)OCC(=O)NCc3cn(-c4ccc(Cl)c(Cl)c4)nn3)CC[C@]3(C)C(=CC[C@@H]4[C@@]5(C)CCC(O)C(C)(C)[C@@H]5CC[C@]43C)[C@H]12` (stereo partly drawn) [2e, (1S,2R,4aS,6aS,6bR,8aR,12aR,12bR,14bS)-2-((1–(3,4-dichlorophenyl)-1H-1,2,3-triazol-4-yl)methylamino)-2-oxoethyl-10-hydroxy-1,2,6a,6b,9,9,12a-heptamethyl-1,2,3,4,4a,5,6,6a,6b,7,8,8a,9,10,11,12,12a,12b,13,14b-icosahydropicene-4a-carboxylate], the melting point is 203 to 204 °C. Moreover, the IC50 in the data set with HeLa cells (Homo sapiens, HeLa) is > 1000 µM. Besides, the IC50 in data set [2] (Toxoplasma gondii) is > 1000 µM.
For the compound `COc1ccccc1-n1cc(/C=C2\C[C@]3(C)[C@H]4CC=C5[C@@H]6[C@@H](C)[C@H](C)CC[C@]6(C(=O)O)CC[C@@]5(C)[C@]4(C)CC[C@H]3C(C)(C)C2=O)nn1` [1i, (1S,2R,4aS,6aS,6bR,8aR,12aR,12bR,14bS,E)-11-((1–(2-methoxyphenyl)-1H-1,2,3-triazol-4-yl)methylene)-1,2,6a,6b,9,9,12a-heptamethyl-10-oxo-1,3,4,5,6,6a,6b,7,8,8a,9,10,11,12,12a,12b,13,14b-octadecahydropicene-4a(2H)-carboxylic acid], the melting point is > 250 °C. In addition, the IC50 in the data set with HeLa cells (Homo sapiens, HeLa) is > 1000 µM. Further, in data set [2] (Toxoplasma gondii), the IC50 is > 1000 µM.
Regarding `C[C@H]1[C@H](C)CC[C@]2(C(=O)O)CC[C@]3(C)C(=CC[C@@H]4[C@@]5(C)C/C(=C\c6cn(-c7ccc(Cl)c(Cl)c7)nn6)C(=O)C(C)(C)[C@@H]5CC[C@]43C)[C@H]12` [1f, (1S,2R,4aS,6aS,6bR,8aR,12aR,12bR,14bS,E)-11-((1–(3,4-dichlorophenyl)-1H-1,2,3-triazol-4-yl)methylene)-1,2,6a,6b,9,9,12a-heptamethyl-10-oxo-1,3,4,5,6,6a,6b,7,8,8a,9,10,11,12,12a,12b,13,14b-octadecahydropicene-4a(2H)-carboxylic acid], the melting point is > 250 °C. Also, in the data set with HeLa cells (Homo sapiens, HeLa), half-maximal inhibition (IC50) required 408 µM. In addition, in data set [2], the “SI (selectivity index)” value amounted to 0.88. This compound also registered an IC50 in data set [2] (Toxoplasma gondii) of 462 µM.
Consider `C[C@H]1[C@H](C)CC[C@]2(C(=O)OCC(=O)NCc3cn(-c4ccc(Cl)cc4)nn3)CC[C@]3(C)C(=CC[C@@H]4[C@@]5(C)CCC(O)C(C)(C)[C@@H]5CC[C@]43C)[C@H]12` (stereo partly drawn) [2b, (1S,2R,4aS,6aS,6bR,8aR,12aR,12bR,14bS)-2-((1–(4-chlorophenyl)-1H-1,2,3-triazol-4-yl)methylamino)-2-oxoethyl-10-hydroxy-1,2,6a,6b,9,9,12a-heptamethyl-1,2,3,4,4a,5,6,6a,6b,7,8,8a,9,10,11,12,12a,12b,13,14b-icosahydropicene-4a-carboxylate], for which the melting point was in the range of 176 to 178 °C. Moreover, 329 µM corresponded to half-maximal inhibition with HeLa cells (Homo sapiens, HeLa) (IC50). In addition, the IC50 in data set [2] (Toxoplasma gondii) was > 1000 µM.
